Measurements as given in publication PMC12217528, “Structural basis of topoisomerase targeting by delafloxacin” (Nature Communications, 2025).

Legend:
Assay type in all cases: biochemical
[1] = molecular target: T1, DNA gyrase (GyrA subunit) (Streptococcus pneumoniae, UniProt P0A4M0+Q8DPM2); experiment: supercoiled pBR322 DNA cleavage assay (cleavage complex stabilisation)
T1 construct: full-length GyrA reconstituted with GyrB; with GyrB, with DNA

[2] = molecular target: T2, topoisomerase IV (ParC subunit, ParE30-ParC55 fusion) (Streptococcus pneumoniae, UniProt P72525+Q59961); experiment: X-ray co-crystal structures at […] and […] Å; DNA cleavage assay with purified enzyme; design: ParE30-ParC55 fusion protein (ParE TOPRIM domain + ParC breakage-reunion domain), C-terminal His6; with ParE (ParE30 TOPRIM domain), with 18-mer V-site or E-site gate DNA
Target sequence in this assay (Q59961 404-647): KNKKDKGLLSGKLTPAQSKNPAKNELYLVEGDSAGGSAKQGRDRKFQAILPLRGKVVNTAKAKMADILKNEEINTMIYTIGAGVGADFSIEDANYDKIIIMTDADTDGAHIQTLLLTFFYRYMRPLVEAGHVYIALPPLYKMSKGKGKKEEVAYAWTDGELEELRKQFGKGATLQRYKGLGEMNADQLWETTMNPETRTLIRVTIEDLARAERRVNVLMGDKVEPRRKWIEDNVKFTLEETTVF
Target sequence in this assay (P72525 1-490): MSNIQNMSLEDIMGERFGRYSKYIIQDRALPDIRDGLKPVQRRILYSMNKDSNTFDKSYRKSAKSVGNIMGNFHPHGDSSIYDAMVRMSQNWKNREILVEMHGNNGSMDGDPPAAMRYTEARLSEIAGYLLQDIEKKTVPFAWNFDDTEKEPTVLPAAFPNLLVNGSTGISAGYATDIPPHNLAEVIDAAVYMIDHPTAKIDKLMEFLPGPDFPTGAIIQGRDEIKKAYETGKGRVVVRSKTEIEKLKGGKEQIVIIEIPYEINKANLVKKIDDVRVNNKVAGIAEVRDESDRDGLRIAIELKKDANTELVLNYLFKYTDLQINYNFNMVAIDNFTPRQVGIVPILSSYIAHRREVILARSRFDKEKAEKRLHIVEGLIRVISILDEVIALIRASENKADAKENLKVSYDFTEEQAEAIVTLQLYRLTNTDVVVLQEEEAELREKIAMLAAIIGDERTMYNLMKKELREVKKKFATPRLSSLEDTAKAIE

[3] = molecular target: T2, topoisomerase IV (ParC subunit, ParE30-ParC55 fusion); experiment: supercoiled pBR322 DNA cleavage assay (cleavage complex stabilisation); design: ParE30-ParC55 fusion protein; with ParE (ParE30 TOPRIM domain), with DNA
Target sequence in this assay (P72525 1-490): as above
Target sequence in this assay (Q59961 404-647): as the sequence (Q59961 404-647) above

T1 sequence (Q8DPM2 whole entry): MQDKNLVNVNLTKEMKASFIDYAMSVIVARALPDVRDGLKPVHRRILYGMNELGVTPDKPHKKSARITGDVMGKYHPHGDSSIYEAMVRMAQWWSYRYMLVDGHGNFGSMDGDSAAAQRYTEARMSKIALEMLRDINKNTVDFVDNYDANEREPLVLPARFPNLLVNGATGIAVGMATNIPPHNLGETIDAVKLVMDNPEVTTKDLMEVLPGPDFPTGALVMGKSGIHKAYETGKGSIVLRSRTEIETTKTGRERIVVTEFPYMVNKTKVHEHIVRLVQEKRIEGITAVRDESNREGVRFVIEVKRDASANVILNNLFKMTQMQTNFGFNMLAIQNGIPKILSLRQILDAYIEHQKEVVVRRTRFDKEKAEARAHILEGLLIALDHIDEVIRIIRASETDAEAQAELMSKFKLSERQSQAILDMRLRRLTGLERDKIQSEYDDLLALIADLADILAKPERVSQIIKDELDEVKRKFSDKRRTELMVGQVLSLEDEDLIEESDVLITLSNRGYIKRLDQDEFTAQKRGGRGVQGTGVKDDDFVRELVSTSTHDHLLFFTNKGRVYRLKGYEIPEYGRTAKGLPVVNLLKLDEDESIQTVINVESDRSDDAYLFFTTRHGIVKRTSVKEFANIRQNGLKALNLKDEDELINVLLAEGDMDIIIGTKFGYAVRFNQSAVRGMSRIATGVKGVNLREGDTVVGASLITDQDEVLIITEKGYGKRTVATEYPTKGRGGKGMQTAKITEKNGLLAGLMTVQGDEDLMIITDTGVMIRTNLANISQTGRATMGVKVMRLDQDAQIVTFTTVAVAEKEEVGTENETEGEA
T1 sequence (P0A4M0 whole entry): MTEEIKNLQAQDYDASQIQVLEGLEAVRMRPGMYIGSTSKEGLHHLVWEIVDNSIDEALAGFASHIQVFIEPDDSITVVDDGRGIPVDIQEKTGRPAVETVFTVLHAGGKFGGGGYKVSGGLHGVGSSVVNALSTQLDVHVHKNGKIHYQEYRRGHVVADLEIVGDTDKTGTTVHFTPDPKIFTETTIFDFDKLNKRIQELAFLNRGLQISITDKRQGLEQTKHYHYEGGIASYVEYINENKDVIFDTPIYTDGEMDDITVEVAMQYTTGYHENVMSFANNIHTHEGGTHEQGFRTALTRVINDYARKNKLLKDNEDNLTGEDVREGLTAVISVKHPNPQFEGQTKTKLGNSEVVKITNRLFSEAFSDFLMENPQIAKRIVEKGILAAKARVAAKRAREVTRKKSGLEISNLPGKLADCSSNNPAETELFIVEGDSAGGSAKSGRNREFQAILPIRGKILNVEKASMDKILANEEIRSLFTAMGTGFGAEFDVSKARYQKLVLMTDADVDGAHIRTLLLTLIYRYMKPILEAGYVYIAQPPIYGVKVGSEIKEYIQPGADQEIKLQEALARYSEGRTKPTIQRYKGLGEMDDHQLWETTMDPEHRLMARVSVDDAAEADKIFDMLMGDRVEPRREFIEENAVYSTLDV

Compound	supercoiled pBR322 DNA cleavage assay (cleavage complex stabilisation) [1]	X-ray co-crystal structures at 2.0 and 2.4 Å; DNA cleavage assay with purified e [2]	supercoiled pBR322 DNA cleavage assay (cleavage complex stabilisation) [3]
Nc1nc(-n2cc(C(=O)O)c(=O)c3cc(F)c(N4CC(O)C4)c(Cl)c32)c(F)cc1F [Delafloxacin]	2.5–5.0 µM	0.12 µM	–
C[C@H]1COc2c(N3CCN(C)CC3)c(F)cc3c(=O)c(C(=O)O)cn1c23 [Levofloxacin]	–	–	2.5 µM
